Measured values reported in patent US20170295779A9, “COMPOSITION COMPRISING A PESTICIDE AND AMIDE” (BASF SE, priority 2013, published 2017).

Key:
[1] = tested on: barley (cultivar Lawina); assay: Phytotoxicity greenhouse test, spray of carboxylic acid amide on barley; type: in vivo; conditions: 3-4 leaf stage, spray 200 l/ha comprising 1500 ml carboxylic acid amide/ha, visual score vs plants treated with water only
Protocol: Phytotoxicity in accordance with the present invention is determined by an assay where a spray comprising water (aqua dest.) and carboxylic acid amide (200 l/ha comprising 1500 ml carboxylic acid amide/ha) is prepared and applied on plants of barley (cultivar […]) being in 3-4 leaf stage at a water application rate of 1.5 l/ha. The experimental period lasts for 10 days. During this time, the experimental plants receive optimum watering, with nutrients being supplied via the water used for watering. The phytotoxicity is evaluated by awarding scores to the treated plants in comparison to untreated plants, i.e. treated with water only. The evaluation scale ranges from 0% to 100% phytotoxicity. The evaluation is done by visual examination. 0% phytotoxicity means that there are no differences between treated and untreated plants. Thus, no phytotoxicity in accordance with the present invention means that the treated plants to not have plant injury and there is no difference between treated and untreated plants. Low phytotoxicity in accordance with the present invention means that only 1 to 10% of the treated plants have plant injury as compared to untreated plants. For the greenhouse tests, barley (cultivar […]) was sown and cultivated in standard soil (type P, fine) for 3 weeks. The spray mixtures were applied with a minicompressor (4 times) in a laboratory fume hood on plants being in 3-4 leaf stage. A spray comprising water (aqua dest.) and dibutylpropionamide from Example 1 (200 l/ha comprising 1500 ml dibutylpropionamide/ha) was prepared and applied at a water application rate of 1.5 l/ha. The experimental period lasted for 10 days. During this time, the experimental plants received optimum watering, with nutrients being supplied via the water used for watering. The phytotoxicity was evaluated by assessing scores to the treated plants in comparison to untreated plants, i.e. treated with water only (see Table 1). The evaluation scale ranges from 0% to 100% phytotoxicity. The evaluation was done by visual examination. Thus, 0% phytotoxicity means that there were no differences between treated and untreated plants. […] A rating of 0% phytotoxicity means no crop injury. […] A rating of 100% means the complete destruction of all plants. […] Thus, less than 10% of the plants were affected when said carboxylic acid amides were applied on the plants in a dose of 1500 ml/ha. […] Thus, carboxylic acid amides wherein the N,N-alkyl groups are having more than two carbon atoms seem to have no or almost no phytotoxic effect on the plants and can therefore be used in agricultural compositions for reducing the phytotoxicity in such compositions.

[2] = Determination of the max. solubility of fungicides in carboxylic acid amides; type: physicochemical
Protocol: The respective fungicide was dissolved in the solvent of interest so that a supersaturated solution was obtained. The deposit was filtered off. The concentration of the fungicide in the supernatant was determined via quantitative 1H-NMR spectroscopy.

Row | SMILES | Phytotoxicity [%] 10 days after treatment [1] | Solubility [%] Fluxapyroxad [2] | Phytotoxicity [%] 10 days after treatment ([1]; listed as dimethylpropionamide)
1 | CCCCCCCC(=O)N(CCCC)CCCC [C8-dibutylamide, N,N-dibutyl-octanamide] | 5% |  | 
2 | CCCCN(CCCC)C(=O)CC [Dibutylpropionamide, N,N-dibutyl-propionamide] | 0% | 28% | 
3 | CCC(=O)N(CC)CC [Diethylpropionamide, N,N-diethyl-propionamide] | 6% |  | 
4 | CCC(=O)N(C)C [Dimethylpropionamide, N,N-dimethyl-propionamide, reference compound] | 43% |  | up to 43%
